Results as given in PubChem BioAssay AID434987 (Southern Research Specialized Biocontainment Screening …, 2010).
The source made the active and inactive calls. No rule for the calls is given here.

System: M. tuberculosis H37Rv growth inhibition with meropenem
Assay: dose response, H37Rv, with and without meropenem (AID 434987);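 also: growth over 7 days at 37 °C before Alamar Blue read on day 9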
[1] = M. tuberculosis H37Rv growth inhibition, measured here: IC50 without meropenem
[2] = M. tuberculosis H37Rv growth inhibition, measured here: IC90 without meropenem
[3] = measured here: IC90 with meropenem

SMILES | IC50 | IC50 [1] [µM] | IC90 [2] [µM] | IC90 [3] [µM]
COc1ccc(OC)c(NC(=O)CSC2=C(C#N)C(c3ccco3)C3=C(CCCC3=O)N2)c1 (stereo not given) | 70.4 µM (inactive) | 94.2 | > 100 | > 100
O=C(CSc1nnc(-c2cnccn2)n1Cc1ccco1)Nc1ccc(Br)cc1 | 44.2 µM (inactive) | > 100 | > 100 | > 100
CCOC(=O)Cn1nc(-c2ccc(C)cc2)c2ccccc2c1=O | 17.5 µM | > 100 | > 100 | > 50
CC(=O)Nc1nonc1-c1nc2ccccc2n1CCC(C)C | > 100 µM (inactive) | > 100 | > 100 | > 100
CCOC(=O)c1c(NC(=O)COC(=O)c2ncc(Cl)c(Cl)c2Cl)sc(C(=O)N(C)C)c1C | 24.8 µM (inactive) | 47.3 | 53.4 | 27.7
COc1ccc(/C=C2/CCCC(C(=O)C(F)(F)F)=C2O)cc1OC | 34.6 µM | 96.9 | > 100 | > 100
Cc1ccc(S(=O)(=O)NCCCCCC(=O)Nc2ccccn2)cc1 | > 100 µM (inactive) | > 100 | > 100 | > 100
C/C(=N\NC(=O)c1cccc(Cl)c1)c1cccc(NC(=O)C(C)C)c1 | > 100 µM (inactive) | > 100 | > 100 | > 100
CCCCCc1ccc(-c2ccc(/C=C/C(N)=O)cc2)nc1 | > 100 µM (inactive) | > 100 | > 100 | > 100
CSc1ccc(/C=C/C(=O)Nc2ccccc2)cc1 | > 100 µM (inactive) | > 100 | > 100 | > 100
Cc1nc2ccccc2c(=O)n1/N=C/c1c(O)ccc2oc3c(c12)CCCC3 | > 100 µM (inactive) | > 100 | > 100 | > 100
O=c1[nH]c(CN(CCO)CCO)nc2c1C1(CCCCC1)Cc1ccccc1-2 | 19.6 µM | > 100 | > 100 | > 100
COc1ccc(OC)c(Nc2nc(-c3cccs3)cs2)c1 | 42.8 µM (inactive) | 49 | > 100 | > 100
COc1c(F)c(F)c(C(=O)Nc2c(C)cc(Br)cc2C)c(F)c1F | 4.58 µM | > 100 | > 100 | > 100
Fc1ccc(NC(=S)NCc2cccs2)cc1 | > 100 µM (inactive) | > 100 | > 100 | > 100
CCC(=O)NC(=S)Nc1ccc(-c2nc3ccccc3s2)cc1 | > 100 µM (inactive) | > 100 | > 100 | > 100
Cc1cc(NC(=O)c2ccc3c(c2)OCCO3)ccc1NC(=O)c1cc2ccccc2o1 | 76.3 µM (inactive) | > 100 | > 100 | > 100
Cc1cccc(NC(=S)NC2CC3C=CC2C3)c1 (stereo not given) | 22.3 µM (inactive) | 23.8 | > 100 | > 100
O=C1CCNc2c(Cl)cccc21 | > 100 µM (inactive) | > 100 | > 100 | > 100
Cc1cc2ccccn2c1C(=O)c1ccc([N+](=O)[O-])o1 | > 100 µM (inactive) | > 100 | > 100 | > 100

SMILES | IC50 | IC50 [1] [µM] | IC90 [2] [µM] | IC90 [3] [µM]
Cc1ccc(OCC(=O)N/N=C/c2cn(C)c3ccccc23)cc1 | 24.7 µM | > 100 | > 100 | > 100
COCCOC(=O)c1c(C)oc2ccc(OCc3cc(C(=O)OC)oc3C)cc12 | > 100 µM (inactive) | > 100 | > 100 | > 100
Cc1ccc(C2=NN(C(=O)CN3C(=O)c4ccccc4S3(=O)=O)C(c3ccco3)C2)cc1 (stereo not given) | > 100 µM (inactive) | > 100 | > 100 | > 100
Cc1nc(/N=C(\N)NC(=O)c2ccccc2)nc2ccccc12 |  | > 100 | > 100 | > 25
COc1ccc2ccccc2c1/C=N/NC(=O)c1cccc(Br)c1 | > 100 µM (inactive) | > 100 | > 100 | > 100
Cc1cccc(C)c1-n1c(C)cc(/C=C2\C(=O)NN(c3ccccc3)C2=O)c1C | > 100 µM (inactive) | > 100 | > 100 | > 100
CCOc1cc(CNC(C)C)c(Cl)cc1OCC(=O)NCCc1ccccc1 | > 100 µM (inactive) | > 100 | > 100 | > 100
OC(COC(c1ccccc1)c1ccccc1)CN1CCN(c2cccc(Cl)c2)CC1 (stereo not given) | 44.6 µM (inactive) | 47.4 | > 100 | > 100
CC(C)N1CCc2c(sc(NC(=O)c3cc(-c4cccs4)nc4ccccc34)c2C(N)=O)C1 | 13.7 µM (inactive) | 24.8 | > 100 | > 100
COc1ccccc1CNC(=O)COC(=O)C1=COCCO1 | 18.5 µM | 67.9 | > 100 | > 100
COc1cc(/C(C)=N\NC(N)=S)cc(OC)c1OC | 10.2 µM | > 100 | > 100 | 19.6
CN1CCN(S(=O)(=O)c2ccc(NC(=O)c3ccc(Br)s3)cc2)CC1 | 74.7 µM (inactive) | > 100 | > 100 | > 100
O=C(O)C1CC(=O)N(c2ccc(OCc3ccccc3Cl)cc2)C1 (stereo not given) | 14.2 µM | 41.6 | > 100 | > 100
Cc1nnnn1/C(=C\c1ccccc1)C(=O)OCC(=O)NC1CCCCC1 | 8.62 µM (inactive) | 18.1 | 27 | 17.6
Cc1ccc(C)c(CSc2nnc(C)c(=O)n2N)c1 | 5.73 µM | 14.1 | 39.5 | 20.4
CCN(CC(=O)Nc1ccc2c(c1)OCCO2)C(=O)c1ccc([N+](=O)[O-])s1 | 23.6 µM (inactive) | 26.7 | 50.7 | 26
COc1ccc(NC(C)C(=O)N/N=C/c2ccc([N+](=O)[O-])s2)cc1 (stereo not given) | 2.17 µM (inactive) | 3.12 | 4.8 | 4.79
NNC(=S)Nc1ccc(C(F)(F)F)cc1Cl | > 100 µM (inactive) | > 100 | > 100 | > 100
CC[C@@]1(c2ccccc2OC)C(=O)N(C(=O)OC)N1C(=O)OC | 13.9 µM | > 100 | > 100 | > 100
O=C(CCCCCN1C(=O)c2cccc([N+](=O)[O-])c2C1=O)Nc1ccccc1F | 10.2 µM | > 100 | > 100 | 44.1

SMILES | IC50 | IC50 [1] [µM] | IC90 [2] [µM] | IC90 [3] [µM]
COc1ccccc1C(=O)Nc1ccc2c3c(cccc13)CC2 | 8.08 µM | 35.9 | > 50 | > 100
C/C(CC(=O)Nc1c(C)cc(C)cc1C)=N\NC(=O)c1cnccn1 | 5.21 µM | 28.7 | 58.5 | 17.4
CCOC(=O)c1sc2ccccc2c1NC(=O)c1coc2ccccc2c1=O | > 100 µM (inactive) | > 100 | > 100 | > 100
CCOC(=O)c1cnc2cc(-c3ccc(C(C)(C)C)cc3)nn2c1N | 0.899 µM | 12.1 | > 100 | 5.74
CC1=Nc2ccccc2/C1=C\c1nc(-c2ccc(F)cc2)oc1O | 3.73 µM | 93.7 | > 100 | > 100
CCC1(c2ccc(Cl)cc2)NC(=S)N(c2ccc(C)cc2)N1 (stereo not given) | > 100 µM (inactive) | > 100 | > 100 | > 100
Cc1ccc(-n2nnnc2Sc2nc([N+](=O)[O-])nn2C)cc1 | 10.2 µM | 51.4 | 93.5 | > 100
CCOC(=O)NC1c2ccccc2Oc2ccccc21 | 37.6 µM | > 100 | > 100 | > 50
O=C1Nc2c(ccc(Cl)c2Cl)C(=O)C1(F)c1ccccc1 (stereo not given) | 23.7 µM | 95.6 | > 100 | 71.7
COC(=O)C1=C(C)NC(=O)/C1=C\c1cc(C)n(-c2c(C)cccc2C)c1C | 88 µM (inactive) | > 100 | > 100 | 99.8
O=C(CSc1ncnc2c1cnn2-c1ccccc1)Nc1ccc2c(c1)OCO2 | 27.3 µM (inactive) | 49.1 | > 100 | > 100
C=CCN(C(=O)CN1CCOCC1)c1nc(C)c(-c2ccccc2)s1 | > 100 µM (inactive) | > 100 | > 100 | > 100
Cc1ccc2c(c1)CCCN2C(=O)c1cc2ccccc2oc1=O | 22.9 µM | > 100 | > 100 | > 25
O=C1/C(=C/C=C/c2ccco2)SC(=S)N1c1ccc(O)cc1 | > 100 µM (inactive) | > 100 | > 100 | > 100
COc1ccc(C(=O)NC(=S)NC(C)(C)C)cc1Br | > 100 µM (inactive) | > 100 | > 100 | > 100
COc1ccc(C(=O)CN(C(=O)c2ccc(Cl)cc2)N2C(=O)c3ccccc3C2=O)cc1 | 5.66 µM | 34.9 | > 100 | 22.4
CCC(=O)c1ccc(OCc2ccc(C(=O)OC)cc2)c(OC)c1 | 27.9 µM | > 100 | > 100 | > 100
C/C(=N\NC(=O)c1cc2c(s1)CCC(C)C2)c1cccnc1 (stereo not given) | > 100 µM (inactive) | > 100 | > 100 | > 100
Cc1ccc(NC(=O)/C=C\C(=O)O)c([N+](=O)[O-])c1 | 56.7 µM (inactive) | 95.7 | > 100 | > 100
